“Also recorded” adds a separate entry of the source.
Key:
[1] = test system: cortical neurons and glia; details: 10-100 μM, 30 min in MEM without azide
[2] = test system: murine cortical cell cultures (neurons), NMDA receptor; experiment: NMDA neurotoxicity in murine cortical cell cultures, medium LDH; format: cell-based, Swiss Webster mice; details: compound added with low micromolar NMDA, 20-25 h
Experimental: Cultures were incubated in 5% CO2 at 37° C.
Experiments were conducted at 13-15 days in vitro.

[3] = test system: cortical neurons and glia; experiment: Chemical hypoxia (azide) and glucose deprivation in cortical cell cultures, medium LDH; format: cell-based, Swiss Webster mice; details: 3 mM azide 30 min with compound; LDH 21-25 h later
Experimental: Primary cultures containing both cortical neurons and glia were prepared from gravid Swiss Webster mice as previously described. (Regan , R. F. and Choi, D. W., The effect of NMDA, AMPA/kainate, and calcium channel antagonists on traumatic cortical neuronal injury in culture, Brain Res, 633: 236-242, 1994). Plating medium consisted of Eagle's minimal essential medium (MEM), 5% equine serum, 5% fetal bovine serum, 2 mM glutamine, and 23 mM glucose. Cultures were incubated in 5% CO2 at 37° C. Two-thirds of the culture medium was exchanged twice weekly with MEM containing 10% equine serum, 2 mM glutamine, and 23 mM glucose. Glial cell division was inhibited at 4-7 days in vitro with 10^−5 M cytosine arabinoside.
Chemical hypoxia was induced with 3 mM azide, which unlike cyanide is not volatile and has little effect on copper-zinc and manganese superoxide dismutases at low millimolar concentrations. (Misra, H. P. and Fridovich, I., Inhibition of superoxide dismutases by azide, Arch Biochem Biophys 189: 317-322, 1978). Experiments were conducted at 13-16 days in vitro in a glucose-free buffer containing 116 mM NaCl, 5.4 mM KCl, 1.8 mM CaCl2, 1 mM NaH2PO4, 26.2 mM NaHCO3, 0.8 mM MgSO4, and amino acids (MEM amino acids, Sigma Chemical Co., St. Louis, Mo., U.S.A.). After incubation for 30-90 min at 37° C. in 5% CO2, cultures were washed into MEM containing 10 mM glucose and were returned to the incubator.
Cell death was estimated 21-25 h after azide exposure by inspection under phase-contrast microscopy, and was quantified by assaying lactate dehydrogenase (LDH) activity in the medium, as previously described. (Regan, R. F. and Panter, S. S., Traumatic neuronal injury in cortical cell culture is attenuated by 21-aminosteroids, Brain Res, 682: 144-150, 1995). Medium LDH in this culture system is an accurate marker of neuronal death that correlates well with cell counts. (Koh, J. Y. and Choi, D. W., Vulnerability of cultured cortical neurons to damage by excitotoxins: Differential susceptibility of neurons containing NADPH-diaphorase, J Neurosci 8: 2153-2163, 1988). […] (Koh, J. Y. and Choi, D. W., 1988). The LDH activity in the medium of sister cultures exposed to sham wash alone was subtracted from all values to obtain the LDH signal associated specifically with neurotoxin exposure.
Data were analyzed by one-way analysis of variance. Differences between groups and a single mean were assessed with the Dunnett multiple comparisons test; when groups were compared to more than one mean, the Tukey-Kramer post hoc test was used.

## OCCS [mercaptoethanol]
[1]
  toxicity of compound alone: nontoxic
[2]
  effect on NMDA neurotoxicity (neuronal death, medium LDH): markedly enhanced
[2]; listed as Mercaptoethanol
  effect on NMDA neurotoxicity (neuronal death, medium LDH): increased NMDA neurotoxicity to a degree comparable to that of glutathione
[3]
  effect on azide neurotoxicity in glucose-free buffer (neuronal death): potentiate; also recorded: concentration-toxicity profile that was similar to GSH

Source: patent publication US20010053797A1 (priority 1998, published 2001)
